Experimental data from ChEMBL document CHEMBL1131105, “Anthracene-9,10-diones as potential anticancer agents: bacterial mutation studies of amido-substituted derivatives reveal an unexpected lack of mutagenicity” (1998).

Assays:
Assay type in all cases: functional, Salmonella enterica subsp. enterica serovar Typhimurium
[1] = system: Salmonella typhimurium; experiment: Bacterial mutagenicity was measured against Salmonella Typhimurium TA98 at dose range of 0-20 ug/plate
[2] = system: Salmonella typhimurium; experiment: Bacterial mutagenicity was measured against Salmonella Typhimurium TA97a at dose range of 0-400 ug/plate
[3] = system: Salmonella typhimurium; experiment: Bacterial mutagenicity was measured against Salmonella Typhimurium TA1538 at dose range of 0-200 ug/plate
[4] = system: Salmonella typhimurium; experiment: Bacterial mutagenicity was measured against Salmonella Typhimurium TA98 at dose range of 0-10 ug/plate
[5] = system: Salmonella typhimurium; experiment: Bacterial mutagenicity was measured against Salmonella Typhimurium TA1538 at dose range of 0-5 ug/plate

Molecule `C(=N\NC1=NCCN1)/c1c2ccccc2c(/C=N/NC2=NCCN2)c2ccccc12` [BISANTRENE] has a Slope [1] of 0.33 mutants ug-1, a Slope [2] of 1.83 mutants ug-1 and a Slope [3] of 0.2 mutants ug-1.
Molecule `O=C1c2c(O)ccc(O)c2C(=O)c2c(NCCNCCO)ccc(NCCNCCO)c21` [MITOXANTRONE] has a Slope [4] of 3.04 mutants ug-1, a Slope [2] of 0.01 mutants ug-1 and a Slope [5] of 3.52 mutants ug-1.
